Entries after “also recorded” stand apart in the source; their conditions may differ.
Key:
Assay type in all cases: in vivo
[1] = system: SL biosynthesis genes D27, CCD7, CCD8, CO; experiment: qRT-PCR transcript analysis of SL biosynthesis genes in rice roots; conditions: 5 μM; for transcript levels of SL biosynthesis enzymes D27, CCD7, CCD8 and CO: wild-type rice seedlings, Pi-starvation, 6 h
Procedure: For transcript analysis, one-week-old seedlings were grown hydroponically in half-strength modified Hoagland nutrient solution with K2HPO4.2H2O (+Pi) and without K2HPO4.2H2O (+Pi) (−Pi) for 7 days. Seedlings were further treated with zaxinone or MZ compounds for 6 h, and tissues were collected.
Roots of rice seedling were ground and homogenized in liquid nitrogen, and total RNA was isolated using a Direct-zol RNA Miniprep Plus Kit following the manufacturer's instructions (ZYMO RESEARCH; USA). cDNA was synthesized from 1 μg of total RNA using iScript cDNA Synthesis Kit (BIO-RAD Laboratories, Inc, 2000 Alfred Nobel Drive, Hercules, Calif.; USA) according to the instructions in the user manual. The gene expression level was detected by real-time quantitative RT-PCR (qRT-PCR) which was performed using SYBR Green Master Mix (Applied Biosystems; www.lifetechnologies.com) in a CFX384 Touch™ Real-Time PCR Detection System (BIO-RAD Laboratories, Inc, 2000 Alfred Nobel Drive, Hercules, Calif.; USA). The gene expression level was calculated by normalization of a housekeeping gene in rice, Ubiquitin (OsUBQ) (Table 1). The relative gene expression level was calculated according to 2-^ΔΔCT method.

[2] = system: strigolactones (4-deoxyorobanchol, orobanchol) release; experiment: LC-MS/MS quantification of SLs in rice root exudates; conditions: 5 μM; for SL level / release in root exudates (4-DO, Oro): Pi starvation, in comparison with MZ1 and mock control (FIGS. 21A-21C); for SL level of the root exudate: wild-type rice seedlings, Pi-starvation, 6 h, compared with Zaxinone (FIGS. 19, 20A-20B)
Procedure: For SL analysis, one-week-old seedlings were transferred into 50 ml falcon tubes (two seedlings per tube), containing half-strength Hoagland nutrient solution with K2HPO4.2H2O (+Pi), and grown in the biochamber for one week. Rice seedlings were then subjected to phosphate deficiency (−Pi) for another one week. On the day of root exudates collection, rice seedlings were first treated with 5 μM Zaxinone, or MZ compounds for 6 h, and then root exudates and root tissues were collected from each tube for LC-MS/MS analysis and Striga bioassays.
For the quantification of SLs in rice root exudates, 50 ml of root exudates spiked with 0.672 ng of D6-5-deoxystrigol, was brought on a 500 mg/3 ml fast SPE C18 column preconditioned with 6 ml of methanol and 3 ml of water. After washing with 3 ml of water, SLs were eluted with 5 ml of acetone. The 4-deoxyorobanchol fraction (acetone-water solution) was concentrated to SL aqueous solution (˜500 μl), followed by the extraction with 1 ml of ethyl acetate. 750 μl of SLs enriched organic phase was then transferred to 1.5 ml tube and evaporated to dryness under vacuum. The dried extract was dissolved in 100 μl of acetonitrile:water (25:75, v:v) and filtered through a 0.22 µm filter for LC-MS/MS analysis.

[3] = LC-MS analysis of rice plants fed with the mimics; conditions: data not shown; for conversion into the methoxy mimic (MZ3 or MZ5) in rice plants: rice plants fed with the mimic
Striga hermonthica seeds = experiment: Striga hermonthica seed germination bioassay with root exudates of treated rice seedlings; conditions: for decrease of Striga seed germination rate: exudates of rice seedlings treated with 5 μM compound, Pi starvation (FIG. 2)
Procedure: For SL analysis, one-week-old seedlings were transferred into 50 ml falcon tubes (two seedlings per tube), containing half-strength Hoagland nutrient solution with K2HPO4.2H2O (+Pi), and grown in the biochamber for one week. Rice seedlings were then subjected to phosphate deficiency (−Pi) for another one week. On the day of root exudates collection, rice seedlings were first treated with 5 μM Zaxinone, or MZ compounds for 6 h, and then root exudates and root tissues were collected from each tube for LC-MS/MS analysis and Striga bioassays. Striga hermonthica seed germination bioassays were conducted by following the procedure as described previously. About 50-100 sterilized Striga seeds were spread on a glass fiber filter paper disc. Then 12 discs with Striga seeds were put on a sterilized filter paper, moistened with 3 ml sterilized water in a 90 mm petri plate. The plates were sealed with parafilm and cover with aluminum foil. All the plates were kept at 30° C. for 10 days for pre-conditioning. On 11th day, six dry discs with pre-conditioned seeds were selected and put in a 90 mm petri-dish. A filter paper ring moistened with 0.9 ml sterile MilliQ water was placed in the plate. The root exudates collected from Zaxinone or MZ compounds treated rice seedlings was applied at 50 μl on each six disc. Sterile MilliQ water and standard SL analog GR24 (2.5 μM) were included as a negative and positive control, respectively. After application, Striga seeds were incubated in dark at 30° C. for 24 hours. Germination (seeds with radicle emerging through seed coat) was scored under a binocular microscope, and germination rate (%) was calculated.

wild-type rice plants = experiment: Rice phenotypes in soil (rhizotron system); conditions: 5 μM
Procedure: For testing MZ3 and MZ5 on rice phenotypes in the rhizotron system (48 cm×24 cm×5 cm), three-day-old seedlings were grown in soil with half-strength modified Hoagland nutrient solution containing 0.4 mM K2HPO4.2H2O (+Pi) and 5 μM zaxinone for two weeks. The solution was changed every other day, adding the chemical at each renewal. To increase the compounds stability, 1 μl/ml emulsifier (cyclohexanone+Atlas […] kindly provided by a person […] of CRODA, Gouda; The Netherlands) was added into Hoagland nutrient solution. Root surface area was analyzed with the ImageJ software.

Striga hermonthica = Striga hermonthica infection of rice in pots; conditions: 5 μM, rice cv IAC-165 in pots with Striga infested soil (FIG. 13)
Procedure: Pots experiment was conducted and slightly adapted from the protocol as described previously About 20 mg (ca 8000) Striga seeds were thoroughly mixed in 1.5 L sand and soil mixture (1:1) and added in 3 L perforated plastic pot containing 0.5 L clean soil in the bottom. The pots were kept in greenhouse-controlled conditions at 35° C. under moisture to preconditioned Striga seeds for 10 days. On 11th day, one week old five rice seedlings (cv IAC165) were planted in each pot. After three days of rice planting, each pot was first irrigated with 250 ml phosphorus deficient Hoaglands nutrient solution and after four hours of irrigation 25 ml formulated MZ3, MZ5 and Zaxinone (100 μM) were sprayed. Next day, each pot was again supplied with 250 ml nutrient solution to make the final concentration of each compound to 5 μM and to move the compound to rice seedlings. Pots with and without Striga seeds were kept as the negative and positive control. Each compound was applied twice in a week up to four weeks. The rice plants were grown under normal growth condition (30° C., 70% RH) for eight weeks. The number of emerged Striga plants in each pot were counted.

[4] = system: Gigaspora margarita spores; experiment: Gigaspora margarita spores germination
Procedure: Spores were sterilized in a solution of Streptomycine sulphate (0.03% W/V) and Chloramine T (3% W/V) and germinated in 200 μl of MZ3 and MZ5 at 5 μM or 50 nM, GR24 10 nM or a solution of Water/Acetone (12.5 μl acetone in 25 ml water). For each treatments 96 sterilized spores were placed individually in the wells of a multi-well plate and treated with freshly prepared solutions at the beginning of the experiment and after 3 days. Spores were germinated in the dark at 30° C. and the germination rate was evaluated after 3 days and 7 days.

[5] = roots and root exudates, Pi-starved WT rice, 6 hours

## CC(=O)/C=C/c1cccc(Oc2ccc(O)cc2)c1 [MZ2, (E)-4-(3-(4-hydroxyphenoxy)phenyl)but-3-en-2-one]
[1]
  transcript levels of SL biosynthesis enzymes D27, CCD7, CCD8 and CO: downregulating; also recorded: reduced
[2]
  SL level / release in root exudates (4-DO, Oro): significant decrease
  SL level of the root exudate: did not affect
[3]
  conversion into the methoxy mimic (MZ3 or MZ5) in rice plants: not detected

## COc1ccc(-c2cccc(-c3cccc(C(C)=O)c3)c2)cc1 [MZ5]
Striga hermonthica seeds
  decrease of Striga seed germination rate: ~46%
[1]; wild-type rice roots, Pi starvation, 6 h (FIGS. 12A-12D)
  CCD7 and CO transcript level compared with Zaxinone: significantly lower
[1]
  transcript levels of SL biosynthesis enzymes D27, CCD7, CCD8 and CO: pronounced decrease
[2]; [5]
  effect on 4-deoxyorobanchol relative to Zaxinone: significantly stronger
  effect on SL levels relative to Zaxinone: reduced SL levels more than zaxinone
[2]
  SL level of the root exudate: obvious effect
wild-type rice plants
  root surface area and root numbers of WT plants compared with zaxinone treatment: increased more
Striga hermonthica
  reduction of the number of emerging Striga plants compared to the untreated control: 55%
[4]; 5 μM and 50 nM, 3 and 7 days
  spore germination rate: no effect
[3]
  presence in shoots of rice plants fed through roots: detected

## CC(=O)c1cccc(-c2cccc(-c3cccc(-c4cccc(-c5ccc(O)cc5)c4)c3)c2)c1 [MZ6]
[2]
  SL level of the root exudate: did not show significant activity

## CC(=O)c1cccc(-c2cccc(-c3ccc(O)cc3)c2)c1 [MZ4, 1-(4″-hydroxy-[1,1′:3′,1″-terphenyl]-3-yl)ethan-1-one]
Striga hermonthica seeds; exudates of rice plants treated at 5 μM, Pi starvation
  effect on Striga seed germination: did not suppress
[1]
  transcript levels of SL biosynthesis enzymes D27, CCD7, CCD8 and CO: downregulating; also recorded: reduced
[2]
  SL level / release in root exudates (4-DO, Oro): tendency to reduce
  SL level of the root exudate: did not affect
[3]
  conversion into the methoxy mimic (MZ3 or MZ5) in rice plants: not detected

## CC(=O)/C=C/c1cccc(-c2ccc(O)cc2)c1 [MZ1]
[2]
  SL level of the root exudate: did not show significant activity

## CC(=O)/C=C/C=C(C)/C=C/C1=C(C)CC(O)CC1(C)C (stereo in doubt) [Zaxinone, reference compound]
Striga hermonthica seeds
  decrease of Striga seed germination rate: around 29%
Striga hermonthica
  reduction of the number of emerging Striga plants compared to the untreated control: 42%
[4]; Zaxinone, after 3 and 7 days
  spores germination: did not affect

## CC(=O)c1cccc(-c2cccc(-c3cccc(-c4cccc(-c5cccc(-c6ccc(C)cc6)c5)c4)c3)c2)c1 [MZ7]
[2]
  SL level of the root exudate: did not show significant activity

## CC1=C[C@H](O/C=C2/C(=O)O[C@@H]3c4ccccc4C[C@H]23)OC1=O [GR24, reference compound]
[4]; GR24 10 nM
  spore germination rate: highest
